Experimental data reported in patent US6358921B1, “Antimicrobial peptide compositions and method” (priority 1996, dated 2002).

Tests used:
E. coli UB1005 = type: cell-based, Escherichia coli; settings: UB1005
From the text: (§1) The following bacterial strains were utilized: Escherichia coli UB1005 (wt) and its antibiotic supersusceptible derivative DC2 (Clark, 1984); Excherichia coli SC9251 and its polymixin B rasistant mutant pmrA SC9252 (Peterson, et al., 1987) Pseudomonas aeruginosa H187 (wt) (Angus, et al., 1987) and its antibiotic-sensitive derivative H188 (Zimmerman, W, Antimicrob. Agents Chemother. 18: 94-100, 1980); methicillin sensitive Staphylococcus aureus K147 (Kreiswirth, et al., 1983); Staphylococcus aureus SAP0017, a methicillin resistant clinical isolate from Dr. A. Chow (University of British Columia); Bacillus subtilis, an environmental wt lab strain. Enterococcus faecalis are ATCC 29212 cells and Staphylococcus epidermidis was a clinical isolate from Dr. D. Speert (University of British Columbia). Antifungal activity was tested using a clinical lab isolate of Candida albicans. Salmonella typhinurium C57 and C610 (Fields, P.I., et al., Science 243: 1059-1062 (1989) Corynebacterium xerosis was an environmental isolate (University of British Columbia).
(§2) It is now apparent that agar-based assays severely underestimate antifungal activity as well as activity against gram negative microorganisms (Kondejewski, et al., 1996). Consequently, in the studies reported herein, a liquid-broth method was used to measure the antibiotic properties of the peptides. […] Briefly, cells were grown overnight at 37° C. in LB and diluted in the same medium. Serial dilutions of antibiotics were added to the microtitre plates in a volume of 100 μL followed by 10 μL of bacteria to give a final inoculum of 5×10^5 CFU/mL. Plates were incubated at 37° C. overnight and MICs determined as the lowest antibiotic concentration that inhibited growth. […]

B. subtilis = type: cell-based, Bacillus subtilis
From the text: as §1, §2

E. faecalis = type: cell-based, Enterococcus faecalis
From the text: as §1, §2

[1] = Displacement of dansyl-polymyxin from LPS; type: binding, P. aeruginosa; settings: read-out: LPS binding affinity: peptide concentration to displace 50% of dansyl-polymyxin B from LPS; Tables 1, 4, 7
From the text: In order to determine whether ring size affects the interaction between the peptide and bacterial membranes, we studied the interaction between the GS ring analogs and bacterial lipopolysaccharide (LPS). It has been shown previously that dansyl-polymixin (DPX) is a good probe for cationic binding sites on both purified LPS as well as whole bacterial cells (Example 8; Moore, et al., 1986; Sawyer, et al., 1988; Hancock, 1981). […] The LPS binding activity of various GS analogs was investigated, as discussed above.
Dansyl-polymixin (DPX) displacement from P. aeruginosa LPS was measured as described (Moore, et al., 1986). Briefly, peptides were titrated into cuvettes containing 3 μg of LPS per mL and 2.5 μM dansyl-polymixin (approximately 90% saturation of LPS binding sites) in 1 mL of 5 mM sodium HEPES buffer, pH 7.0, and the decrease in fluorescence recorded. A plot of the inverse of the percent inhibition as a function of the inverse of inhibitor concentration gave a value for I50, the inhibitor concentration resulting in 50% displacement of dansyl-polymixin from LPS (−1/× intercept).

S. typhinurium C610 = type: cell-based, Salmonella typhinurium
From the text: as §1, §2

P. aeruginosa H187 = type: cell-based, Pseudomonas aeruginosa; settings: H187
From the text: as §1
(§3) It is now apparent that agar-based assays severely underestimate antifungal activity as well as activity against gram negative microorganisms (Kondejewski, et al., 1996). Consequently, in the studies reported herein, a liquid-broth method was used to measure the antibiotic properties of the peptides. […] Briefly, cells were grown overnight at 37° C. in LB and diluted in the same medium. Serial dilutions of antibiotics were added to the microtitre plates in a volume of 100 μL followed by 10 μL of bacteria to give a final inoculum of 5×10^5 CFU/mL. Plates were incubated at 37° C. overnight and MICs determined as the lowest antibiotic concentration that inhibited growth.
(§4) The results from antimicrobial and hemolytic assays are combined to provide a “Therapeutic Index” (TI) for each peptide with respect to individual microorganisms. As reported herein, the TI is calculated as the hemolytic activity divided by the antimicrobial activity. The TI thus is a measure of specificity of the particular peptide for microbial membranes as opposed to human blood cell membranes. In the present studies, antimicrobial activities are reported as minimum inhibitory concentrations (MIC)—the lowest concentration of peptide (μg/ml) found to inhibit growth of the particular microbe. Hemolytic activity is reported as the concentration of peptide that effected complete lysis of blood cells after four hours. Thus, in the context of the present invention high TI values indicate microbial specificity and relative lack of toxicity.

C. xeroses = type: cell-based, Corynebacterium xerosis
From the text: as §1, §2

E. coli DC2 = type: cell-based, Escherichia coli; settings: DC2
From the text: as §1, §3, §4

P. aeruginosa H188 = type: cell-based, Pseudomonas aeruginosa; settings: H188
From the text: as §1, §2

S. epidermidis = type: cell-based, Staphylococcus epidermidis
From the text: as §1, §2

S. aureus SAP0017 = type: cell-based, Staphylococcus aureus
From the text: as §1, §3, §4

S. aureus K147 = type: cell-based, Staphylococcus aureus
From the text: as §1, §3, §4

C. Albicans = type: cell-based, Candida albicans
From the text: as §1, §2

S. typhinurium C587 = type: cell-based, Salmonella typhinurium
From the text: as §1, §2

## CC(C)C[C@@H]1NC(=O)[C@H](CCCCN)NC(=O)[C@H](C(C)C)NC(=O)[C@@H]2CCCN2C(=O)[C@@H](Cc2ccc(O)cc2)NC(=O)[C@H](CC(C)C)NC(=O)[C@H](CCCCN)NC(=O)[C@H](C(C)C)NC(=O)[C@H](CCCCN)NC(=O)[C@H](CC(C)C)NC(=O)[C@@H]2CCCN2C(=O)[C@@H](Cc2ccc(O)cc2)NC(=O)[C@H](C(C)C)NC(=O)[C@@H](CCCCN)NC1=O [GS14K4]
E. coli UB1005
  Minimum Inhibitory Concentration (activity): 6.2 µg/mL
B. subtilis
  Minimum Inhibitory Concentration (activity): 25 µg/mL
E. faecalis
  Minimum Inhibitory Concentration (activity): 1.5 µg/mL
[1]
  IC50: 93 µM
S. typhinurium C610
  Minimum Inhibitory Concentration (activity): 4 µg/mL
P. aeruginosa H187
  Minimum Inhibitory Concentration (activity): 25 µg/mL
C. xeroses
  Minimum Inhibitory Concentration (activity): 1.5 µg/mL
E. coli DC2
  Minimum Inhibitory Concentration (activity): 3.1 µg/mL
P. aeruginosa H188
  Minimum Inhibitory Concentration (activity): 3.1 µg/mL
S. epidermidis
  Minimum Inhibitory Concentration (activity): 2 µg/mL
S. aureus SAP0017
  Minimum Inhibitory Concentration (activity): 50 µg/mL
S. aureus K147
  Minimum Inhibitory Concentration (activity): 100 µg/mL

## CC(C)C[C@@H]1NC(=O)[C@H](CCCCN)NC(=O)[C@H](C(C)C)NC(=O)[C@@H]2CCCN2C(=O)[C@@H](Cc2ccc(O)cc2)NC(=O)[C@H](CC(C)C)NC(=O)[C@@H](CCCCN)NC(=O)[C@H](C(C)C)NC(=O)[C@H](CCCCN)NC(=O)[C@H](CC(C)C)NC(=O)[C@@H]2CCCN2C(=O)[C@@H](Cc2ccc(O)cc2)NC(=O)[C@H](C(C)C)NC(=O)[C@H](CCCCN)NC1=O [GS14K11]
E. coli UB1005
  Minimum Inhibitory Concentration (activity): 6.2 µg/mL
B. subtilis
  Minimum Inhibitory Concentration (activity): 25 µg/mL
E. faecalis
  Minimum Inhibitory Concentration (activity): 1.5 µg/mL
[1]
  IC50: 50 µM
S. typhinurium C610
  Minimum Inhibitory Concentration (activity): 6.2 µg/mL
P. aeruginosa H187
  Minimum Inhibitory Concentration (activity): 37 µg/mL
C. Albicans
  Minimum Inhibitory Concentration (activity): 6.2 µg/mL
C. xeroses
  Minimum Inhibitory Concentration (activity): 0.8 µg/mL
E. coli DC2
  Minimum Inhibitory Concentration (activity): 3.1 µg/mL
P. aeruginosa H188
  Minimum Inhibitory Concentration (activity): 5 µg/mL
S. epidermidis
  Minimum Inhibitory Concentration (activity): 3.1 µg/mL
S. aureus SAP0017
  Minimum Inhibitory Concentration (activity): 25 µg/mL
S. aureus K147
  Minimum Inhibitory Concentration (activity): 25 µg/mL

## CC(C)C[C@@H]1NC(=O)[C@H](CCCCN)NC(=O)[C@H](C(C)C)NC(=O)[C@@H]2CCCN2C(=O)[C@@H](Cc2ccc(O)cc2)NC(=O)[C@H](CC(C)C)NC(=O)[C@H](CCCCN)NC(=O)[C@H](C(C)C)NC(=O)[C@H](CCCCN)NC(=O)[C@@H](CC(C)C)NC(=O)[C@@H]2CCCN2C(=O)[C@@H](Cc2ccc(O)cc2)NC(=O)[C@H](C(C)C)NC(=O)[C@H](CCCCN)NC1=O [GS14L8]
E. coli UB1005
  Minimum Inhibitory Concentration (activity): 6.2 µg/mL
E. faecalis
  Minimum Inhibitory Concentration (activity): 1.5 µg/mL
[1]
  IC50: 62 µM
S. typhinurium C610
  Minimum Inhibitory Concentration (activity): 6.2 µg/mL
P. aeruginosa H187
  Minimum Inhibitory Concentration (activity): 37 µg/mL
C. Albicans
  Minimum Inhibitory Concentration (activity): 6.2 µg/mL
C. xeroses
  Minimum Inhibitory Concentration (activity): 0.8 µg/mL
E. coli DC2
  Minimum Inhibitory Concentration (activity): 3.1 µg/mL
P. aeruginosa H188
  Minimum Inhibitory Concentration (activity): 3.1 µg/mL
S. epidermidis
  Minimum Inhibitory Concentration (activity): 3.1 µg/mL
S. aureus SAP0017
  Minimum Inhibitory Concentration (activity): 25 µg/mL
S. aureus K147
  Minimum Inhibitory Concentration (activity): 50 µg/mL

## CC(C)C[C@@H]1NC(=O)[C@H](CCCCN)NC(=O)[C@H](C(C)C)NC(=O)[C@@H]2CCCN2C(=O)[C@@H](Cc2ccc(O)cc2)NC(=O)[C@H](CC(C)C)NC(=O)[C@H](CCCCN)NC(=O)[C@H](C(C)C)NC(=O)[C@H](CCCCN)NC(=O)[C@H](CC(C)C)NC(=O)[C@@H]2CCCN2C(=O)[C@@H](Cc2ccc(O)cc2)NC(=O)[C@@H](C(C)C)NC(=O)[C@H](CCCCN)NC1=O [GS14V5]
E. coli UB1005
  Minimum Inhibitory Concentration (activity): 15 µg/mL
B. subtilis
  Minimum Inhibitory Concentration (activity): 200 µg/mL
E. faecalis
  Minimum Inhibitory Concentration (activity): 1.5 µg/mL
[1]
  IC50: 33 µM
S. typhinurium C587
  Minimum Inhibitory Concentration (activity): 100 µg/mL
P. aeruginosa H187
  Minimum Inhibitory Concentration (activity): 100 µg/mL
C. Albicans
  Minimum Inhibitory Concentration (activity): 6.2 µg/mL
E. coli DC2
  Minimum Inhibitory Concentration (activity): 3.1 µg/mL
P. aeruginosa H188
  Minimum Inhibitory Concentration (activity): 62 µg/mL
S. epidermidis
  Minimum Inhibitory Concentration (activity): 3.1 µg/mL
S. aureus SAP0017
  Minimum Inhibitory Concentration (activity): 50 µg/mL
S. aureus K147
  Minimum Inhibitory Concentration (activity): 100 µg/mL

## CC(C)C[C@@H]1NC(=O)[C@H](CCCCN)NC(=O)[C@H](C(C)C)NC(=O)[C@@H]2CCCN2C(=O)[C@@H](Cc2ccc(O)cc2)NC(=O)[C@H](CC(C)C)NC(=O)[C@H](CCCCN)NC(=O)[C@@H](C(C)C)NC(=O)[C@H](CCCCN)NC(=O)[C@H](CC(C)C)NC(=O)[C@@H]2CCCN2C(=O)[C@@H](Cc2ccc(O)cc2)NC(=O)[C@H](C(C)C)NC(=O)[C@H](CCCCN)NC1=O [GS14V10]
E. coli UB1005
  Minimum Inhibitory Concentration (activity): 200 µg/mL
E. faecalis
  Minimum Inhibitory Concentration (activity): 1.5 µg/mL
[1]
  IC50: 18 µM
S. typhinurium C610
  Minimum Inhibitory Concentration (activity): 200 µg/mL
S. typhinurium C587
  Minimum Inhibitory Concentration (activity): >200 µg/mL
P. aeruginosa H187
  Minimum Inhibitory Concentration (activity): >200 µg/mL
C. Albicans
  Minimum Inhibitory Concentration (activity): 17 µg/mL
C. xeroses
  Minimum Inhibitory Concentration (activity): 0.8 µg/mL
E. coli DC2
  Minimum Inhibitory Concentration (activity): 3.1 µg/mL
P. aeruginosa H188
  Minimum Inhibitory Concentration (activity): 200 µg/mL
S. epidermidis
  Minimum Inhibitory Concentration (activity): 3.1 µg/mL
S. aureus SAP0017
  Minimum Inhibitory Concentration (activity): 50 µg/mL
S. aureus K147
  Minimum Inhibitory Concentration (activity): 200 µg/mL
